How the values were obtained:
[1] = molecular target: AMPA receptor; experiment: Membrane binding, [3H]-AMPA, rat cortex homogenate; details: rat cortex membranes
Procedure: This is carried out using a rat cortex homogenate. The membrane pellet is prepared in a conventional manner in a sucrose buffer by differential centrifugations, and then frozen until used. After thawing, […] of membrane homogenate are taken up in a Tris-HCl (30 mM), CaCl2 (2.5 mM) buffer, pH 7.4, and incubated at 4° C. for 30 minutes in the presence of 25 μl of [^3 H]-AMPA or [^3 H]-kainate and 25 μl of the test product. Non-specific binding is determined in the presence of 10 μM quisqualate (AMPA binding) or 10 μM kainic acid (kainate binding). The membranes are then isolated by filtration. After drying of the filters, the radioactivity is measured by scintillation.

[2] = tested on: audiogenic (glutamate-dependent) convulsions in DBA/2 mice; experiment: Audiogenic convulsions test in DBA/2 mice; format: in vivo, mouse (DBA/2); details: for activity by the oral route, audiogenic convulsions: oral administration
Description: (§1) Furthermore, the compounds of the invention have an in vivo activity which is unique and exceptional for the products of this class. In fact, in the audiogenic convulsions test in DBA/2 mice carried out according to the methodology described by CROUCHER et al.

[3] = tested on: Kainate current (glutamate receptors; AMPA/kainate receptors); experiment: Currents induced by kainate in Xenopus oocytes expressing the glutamate receptors; format: cell-based, rat; details: kainate 100 μM, read-out: IC50, inhibition of kainate current
Procedure: 2/ Currents induced by EAA in Xenopus oocytes
Xenopus oocytes are injected with 50 ng of poly(A)^+ mRNA isolated from rat cerebral cortex, and incubated for 2 to 3 days at 18° C. to permit protein expression therein. The inward currents induced by EAA are measured in a medium of composition: NaCl (82.5 mM), KCl (2.5 mM), CaCl2 (1 mM), MgCl2 (1 mM), NaH2 PO4 (1 mM), HEPES (5 mM), pH 7.4, by the 2-electrode voltage-clamp method (potential=-60 mV). For measurement of the currents induced by NMDA and glycine, MgCl2 is absent from the medium and CaCl2 is brought to a concentration of 2 mM. The EAA agonists that induce the currents are used at the following concentrations: kainate: 100 μm; AMPA: 30 μM; glycine/NMDA: 3/30 μM. The test product is applied 30 seconds before and during the application of the agonist.

[4] = tested on: hippocampal pyramidal neurons (CA1); experiment: Transient global cerebral ischemia in Gerbil; format: in vivo
Procedure: 1) Transient global cerebral ischemia in Gerbil
Transient and complete arrest of cerebral blood flow which is observed in clinical situation during a cardiac infarct, gives rise to a delayed death of specific vulnerable neurons, especially in hippocampus, a crucial cerebral region for cognitive functions. This phenomenon can be experimentally reproduced after transient occlusion of common carotid arteries.
In Gerbil, a transient occlusion (5 minutes) of carotid arteries gives rise to a total loss of hippocampal pyramidal neurons (CA1). This death can be observed only 3 or 4 days after ischemia. Numerous studies have shown that it could be due essentially to an excessive release of glutamate during the post-ischemic reperfusion.
NBQX (30 mg/kg IP) protects 50% of neurons in case of treatment 30 minutes before then b.i.d. after ischemia until histological measurement 4 days later.

[5] = tested on: cortical infarct; experiment: Permanent focal ischemia in mice (MCA occlusion); format: in vivo
Procedure: 2) Permanent focal ischemia in mice
This ischemia can be perfectly reproduced in mice by electrocoagulation of MCA, giving rise to a well delimited cortical infarct 24 hours later. This infarct can be easily measured by histological examination.

[6] = Audiogenic convulsions test in DBA/2 mice; format: in vivo, mouse (DBA/2); details: mouse, in vivo, IP vs PO
Description: as §1

[7] = tested on: neurotoxic excitatory currents in the hippocampus; experiment: Neurotoxic excitatory currents induced in the hippocampus by stimulation of the glutamatergic pathways (Schaeffer's collaterals); details: read-out: IC50 with respect to neurotoxic excitatory currents induced in the hippocampus
Procedure: This inhibition is strong and constant since the same IC50 (2 μM) is found with respect to neurotoxic excitatory currents induced in the hippocampus by stimulation of the glutamatergic pathways (Schaeffer's collaterals).

[8] = 30 mg/kg IP, 30 minutes before then b.i.d. after ischemia, histology 4 days later
[9] = 30 mg/kg IP before then 3 hours after ischemia, significant decrease
[10] = 30 mg/kg, curative only (5 minutes, 1 hour and 2 hours after MCA occlusion)

Compound	Ki [1] [nM]	activity by the oral route, audiogenic convulsions [2]	IC50 [3] [nM]	protection of hippocampal neurons ([4]; 10 mg/kg IP, same conditions) [%]	protection from neuronal death (in words) [4, 8]	change of infarct volume [5, 9] [%]	change of infarct volume [5, 10] [%]	bioavailability index (ID50 IP/ID50 PO) [6]	ED50 ([2]; Mus musculus, IP administration, read-out: ID50, audiogenic convulsions) [mg/kg]	IC50 [7] [nM]	protection of neurons [4, 8] [%]	effect on infarct volume (in words) [5, 10]
N#Cc1cc2[nH]c(=O)c(=O)[nH]c2cc1[N+](=O)[O-] [CNQX, 6-cyano-7-nitro-2,3-quinoxalinedione, reference compound]	70	do not have any activity by the oral route										
O=c1[nH]c2cc(Cl)c(Cl)cc2cc1P(=O)(O)O [Example 2, 6,7-Dichloro-2(1H)-quinolone-3-phosphonic acid]	900	also after oral administration	2000	50	protects completely from neuronal death	-26	-23	~0.3	18.7	2000		
NS(=O)(=O)c1cccc2c1c([N+](=O)[O-])cc1[nH]c(=O)c(=O)[nH]c12 [NBQX, 6-nitro-7-sulfamoylbenzo[f]quinoxaline-2,3-dione, reference compound]		do not have any activity by the oral route				-26					50	remains ineffective

Reference: patent US5646132A, “2(1H)-quinolone compounds” (Adir et Compagnie, priority 1993, dated 1997)
